Results taken from patent US20110183969A1, “ANTIFUNGAL COMBINATION THERAPY” (priority 2008, published 2011).
In brackets after ≈: the same amount, converted by molar mass.

How the values were obtained:
Assay in all cases: MIC (YAG medium)
Type in all cases: cell-based
Aspergillus flavus = settings: Aspergillus flavus; YAG medium; MIC banded into grades; read-out: MIC A. flavus (grade)
Outline: (§1)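 Spores harvested from 5-day Sabouraud agar cultures were diluted in YAG medium (1% glucose, 1% ammonium chloride, 0.5% yeast extract) to final inocula of 1-2×10^4 cfu/mL and exposed to doubling dilutions of compound (50-0.05 mg/L). After 24 hrs at 35° C, OD485 was read; MIC is the lowest concentration giving >70% growth inhibition versus drug-free control.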

[1] = system: Aspergillus fumigatus AF210; settings: Aspergillus fumigatus; YAG medium; MIC banded into grades; AF210; read-out: MIC A. fumigatus 210 (grade)
Outline: as §1

[2] = system: Aspergillus fumigatus AF293; settings: Aspergillus fumigatus; YAG medium; MIC banded into grades; AF293; read-out: MIC A. fumigatus (grade)
Outline: as §1

Aspergillus niger = settings: Aspergillus niger; YAG medium; MIC banded into grades; read-out: MIC A. niger (grade)
Outline: as §1

Aspergillus terreus AT49 = settings: Aspergillus terreus; YAG medium; MIC banded into grades; AT49; read-out: MIC A. terreus 49 (grade)
Outline: as §1

Aspergillus terreus AT4 = settings: Aspergillus terreus; YAG medium; MIC banded into grades; AT4; read-out: MIC A. terreus (grade)
Outline: as §1

## Cc1ccnc(N2CCN(c3ccc(NC(=O)C(=O)c4c(-c5ccccc5)cc5ccccn45)cc3)CC2)c1 [Example 49, N-{4-[4-(4-Methyl-pyridin-2-yl)-piperazin-1-yl]-phenyl}-2-oxo-2-(2-phenyl-indolizin-3-yl)-acetamide]
Aspergillus flavus
  MIC: < 1 µg/mL
[1]
  MIC: < 1 µg/mL
[2]
  MIC: < 1 µg/mL
Aspergillus niger
  MIC: < 1 µg/mL
Aspergillus terreus AT49
  MIC: < 1 µg/mL
Aspergillus terreus AT4
  MIC: < 1 µg/mL

## CC(C)(C)CN1CCN(c2ccc(NC(=O)C(=O)c3c(-c4ccccc4)cc4ccccn34)nc2)CC1 [Example 50, N-{5-[4-(2,2-Dimethyl-propyl)-piperazin-1-yl]-pyridin-2-yl}-2-oxo-2-(2-phenyl-indolizin-3-yl)-acetamide]
Aspergillus flavus
  MIC: < 1 µg/mL
[1]
  MIC: < 1 µg/mL
[2]
  MIC: < 1 µg/mL
Aspergillus niger
  MIC: < 1 µg/mL
Aspergillus terreus AT49
  MIC: < 1 µg/mL
Aspergillus terreus AT4
  MIC: < 1 µg/mL

## O=C(Nc1ccc(N2CCN(S(=O)(=O)c3cccnc3)CC2)cc1)C(=O)c1c(-c2ccccc2)cc2ccccn12 [Example 51, 2-Oxo-2-(2-phenyl-indolizin-3-yl)-N-{4-[4-(pyridine-3-sulfonyl)-piperazin-1-yl]-phenyl}-acetamide]
Aspergillus flavus
  MIC: < 1 µg/mL
[1]
  MIC: < 1 µg/mL
[2]
  MIC: < 1 µg/mL
Aspergillus niger
  MIC: < 1 µg/mL
Aspergillus terreus AT49
  MIC: < 1 µg/mL
Aspergillus terreus AT4
  MIC: < 1 µg/mL

## Cc1cc(N2CCN(c3ccc(NC(=O)C(=O)c4c(-c5ccccc5)cc5ccccn45)cc3)CC2)cc(C)n1 [Example 52, N-{4-[4-(2,6-Dimethyl-pyridin-4-yl)-piperazin-1-yl]-phenyl}-2-oxo-2-(2-phenyl-indolizin-3-yl)-acetamide]
Aspergillus flavus
  MIC: > 10 µg/mL
[1]
  MIC: > 10 µg/mL
[2]
  MIC: > 10 µg/mL
Aspergillus niger
  MIC: > 10 µg/mL
Aspergillus terreus AT49
  MIC: > 10 µg/mL
Aspergillus terreus AT4
  MIC: > 10 µg/mL

## O=C(Nc1ccc(N2CCN(CC3CCOCC3)CC2)cc1)C(=O)c1c(-c2ccccc2)cc2ccc(F)cn12 [Example 53, 2-(6-Fluoro-2-phenyl-indolizin-3-yl)-2-oxo-N-{4-[4-(tetrahydro-pyran-4-ylmethyl)-piperazin-1-yl]-phenyl}-acetamide]
Aspergillus flavus
  MIC: 1 to 10 µg/mL (≈ 1.85 to 18.5 µM)
[1]
  MIC: 1 to 10 µg/mL (≈ 1.85 to 18.5 µM)
[2]
  MIC: 1 to 10 µg/mL (≈ 1.85 to 18.5 µM)
Aspergillus niger
  MIC: > 10 µg/mL
Aspergillus terreus AT49
  MIC: 1 to 10 µg/mL (≈ 1.85 to 18.5 µM)
Aspergillus terreus AT4
  MIC: 1 to 10 µg/mL (≈ 1.85 to 18.5 µM)

## Cc1cc(C)nc(N2CCCN(c3ccc(NC(=O)C(=O)c4c(-c5ccccc5)cc5ccccn45)cc3)CC2)c1 [Example 54, N-{4-[4-(4,6-Dimethyl-pyridin-2-yl)-[1,4]diazepan-1-yl]-phenyl}-2-oxo-2-(2-phenyl-indolizin-3-yl)-acetamide]
Aspergillus flavus
  MIC: < 1 µg/mL
[1]
  MIC: < 1 µg/mL
[2]
  MIC: < 1 µg/mL
Aspergillus niger
  MIC: < 1 µg/mL
Aspergillus terreus AT49
  MIC: < 1 µg/mL
Aspergillus terreus AT4
  MIC: < 1 µg/mL

## Cc1cc(C)nc(N(C)CCN(C)c2ccc(NC(=O)C(=O)c3c(-c4ccccc4)cc4ccccn34)cc2)c1 [Example 55, N-[4-({2-[(4,6-Dimethyl-pyridin-2-yl)-methyl-amino]-ethyl}-methyl-amino)-phenyl]-2-oxo-2-(2-phenyl-indolizin-3-yl)-acetamide]
Aspergillus flavus
  MIC: < 1 µg/mL
[1]
  MIC: < 1 µg/mL
[2]
  MIC: < 1 µg/mL
Aspergillus niger
  MIC: < 1 µg/mL
Aspergillus terreus AT49
  MIC: < 1 µg/mL
Aspergillus terreus AT4
  MIC: < 1 µg/mL

## O=C(Nc1ccc(N2CCN(c3ccc(CN4CCOCC4)cc3)CC2)cc1)C(=O)c1c(-c2ccccc2)cc2ccccn12 [Example 56, N-{4-[4-(4-Morpholin-4-ylmethyl-phenyl)-piperazin-1-yl]-phenyl}-2-oxo-2-(2-phenyl-indolizin-3-yl)-acetamide]
Aspergillus flavus
  MIC: < 1 µg/mL
[1]
  MIC: < 1 µg/mL
[2]
  MIC: < 1 µg/mL
Aspergillus niger
  MIC: < 1 µg/mL
Aspergillus terreus AT49
  MIC: < 1 µg/mL
Aspergillus terreus AT4
  MIC: < 1 µg/mL

## COCCOc1cc(C)nc(N2CCN(c3ccc(NC(=O)C(=O)c4c(-c5ccccc5)cc5ccccn45)cc3)CC2)c1 [Example 57, N-(4-{4-[4-(2-Methoxy-ethoxy)-6-methyl-pyridin-2-yl]-piperazin-1-yl}-phenyl)-2-oxo-2-(2-phenyl-indolizin-3-yl)-acetamide]
Aspergillus flavus
  MIC: < 1 µg/mL
[1]
  MIC: < 1 µg/mL
[2]
  MIC: < 1 µg/mL
Aspergillus niger
  MIC: < 1 µg/mL
Aspergillus terreus AT49
  MIC: < 1 µg/mL
Aspergillus terreus AT4
  MIC: < 1 µg/mL

## Cc1cc(C)nc(N2CCN(c3ccc(NC(=O)C(=O)c4c(C5CC5)cc5ccccn45)cc3)CC2)c1 [Example 58, 2-(2-Cyclopropyl-indolizin-3-yl)-N-{4-[4-(4,6-dimethyl-pyridin-2-yl)-piperazin-1-yl]-phenyl}-2-oxo-acetamide]
Aspergillus flavus
  MIC: < 1 µg/mL
[1]
  MIC: < 1 µg/mL
[2]
  MIC: < 1 µg/mL
Aspergillus niger
  MIC: < 1 µg/mL
Aspergillus terreus AT49
  MIC: < 1 µg/mL
Aspergillus terreus AT4
  MIC: < 1 µg/mL

## O=C(Nc1ccc(N2CCN(c3cccnc3)CC2)cc1)C(=O)c1c(-c2ccccc2)cc2ccccn12 [Example 59, 2-Oxo-2-(2-phenyl-indolizin-3-yl)-N-[4-(4-pyridin-3-yl-piperazin-1-yl)-phenyl]-acetamide]
Aspergillus flavus
  MIC: < 1 µg/mL
[1]
  MIC: < 1 µg/mL
[2]
  MIC: < 1 µg/mL
Aspergillus niger
  MIC: < 1 µg/mL
Aspergillus terreus AT49
  MIC: < 1 µg/mL
Aspergillus terreus AT4
  MIC: < 1 µg/mL

## Cc1cc(C)nc(N2CCN(c3ccc(NC(=O)C(=O)c4c(C5CCCCC5)cc5ccccn45)cc3)CC2)c1 [Example 60, 2-(2-Cyclohexyl-indolizin-3-yl)-N-{4-[4-(4,6-dimethyl-pyridin-2-yl)-piperazin-1-yl]-phenyl}-2-oxo-acetamide]
Aspergillus flavus
  MIC: < 1 µg/mL
[1]
  MIC: < 1 µg/mL
[2]
  MIC: < 1 µg/mL
Aspergillus niger
  MIC: < 1 µg/mL
Aspergillus terreus AT49
  MIC: < 1 µg/mL
Aspergillus terreus AT4
  MIC: < 1 µg/mL

## Cc1cc(C)nc(N2CCN(c3ccc(NC(=O)C(=O)c4c(C(C)C)cc5ccccn45)cc3)CC2)c1 [Example 61, N-{4-[4-(4,6-Dimethyl-pyridin-2-yl)-piperazin-1-yl]-phenyl}-2-(2-isopropyl-indolizin-3-yl)-2-oxo-acetamide]
Aspergillus flavus
  MIC: < 1 µg/mL
[1]
  MIC: < 1 µg/mL
[2]
  MIC: < 1 µg/mL
Aspergillus niger
  MIC: < 1 µg/mL
Aspergillus terreus AT49
  MIC: < 1 µg/mL
Aspergillus terreus AT4
  MIC: < 1 µg/mL

## Cc1cc(C)nc(N2CCN(c3ccc(NC(=O)C(=O)c4c(C(C)(C)C)cc5ccccn45)cc3)CC2)c1 [Example 62, 2-(2-tert-Butyl-indolizin-3-yl)-N-{4-[4-(4,6-dimethyl-pyridin-2-yl)-piperazin-1-yl]-phenyl}-2-oxo-acetamide]
Aspergillus flavus
  MIC: > 10 µg/mL
[1]
  MIC: > 10 µg/mL
[2]
  MIC: > 10 µg/mL
Aspergillus niger
  MIC: > 10 µg/mL
Aspergillus terreus AT49
  MIC: > 10 µg/mL
Aspergillus terreus AT4
  MIC: 1 to 10 µg/mL (≈ 1.96 to 19.6 µM)

## Cc1cc(C)nc(N2CCN(c3ccc(NC(=O)C(=O)c4c(C5CCN(C)CC5)cc5ccccn45)cc3)CC2)c1 [Example 63, N-{4-[4-(4,6-Dimethyl-pyridin-2-yl)-piperazin-1-yl]-phenyl}-2-[2-(1-methyl-piperidin-4-yl)-indolizin-3-yl]-2-oxo-acetamide]
Aspergillus flavus
  MIC: > 10 µg/mL
[1]
  MIC: > 10 µg/mL
[2]
  MIC: > 10 µg/mL
Aspergillus niger
  MIC: > 10 µg/mL
Aspergillus terreus AT49
  MIC: > 10 µg/mL
Aspergillus terreus AT4
  MIC: > 10 µg/mL

## Cc1cc(C)nc(N(C)CCOc2ccc(NC(=O)C(=O)c3c(-c4ccccc4)cc4ccccn34)cc2)c1 [Example 64, N-(4-{2-[(4,6-Dimethyl-pyridin-2-yl)-methyl-amino]-ethoxy}-phenyl)-2-oxo-2-(2-phenyl-indolizin-3-yl)-acetamide]
Aspergillus flavus
  MIC: < 1 µg/mL
[1]
  MIC: < 1 µg/mL
[2]
  MIC: < 1 µg/mL
Aspergillus niger
  MIC: < 1 µg/mL
Aspergillus terreus AT49
  MIC: < 1 µg/mL
Aspergillus terreus AT4
  MIC: < 1 µg/mL

## Cc1cc(C)nc(OCCOc2ccc(NC(=O)C(=O)c3c(-c4ccccc4)cc4ccccn34)cc2)c1 [Example 65, N-{4-[2-(4,6-Dimethyl-pyridin-2-yloxy)-ethoxy]-phenyl}-2-oxo-2-(2-phenyl-indolizin-3-yl)-acetamide]
Aspergillus flavus
  MIC: < 1 µg/mL
[1]
  MIC: < 1 µg/mL
[2]
  MIC: < 1 µg/mL
Aspergillus niger
  MIC: < 1 µg/mL
Aspergillus terreus AT49
  MIC: < 1 µg/mL
Aspergillus terreus AT4
  MIC: < 1 µg/mL
